Laboratory results from patent US8809368B2, “Compounds affecting gap junction activity” (Kansas State University Research Foundation, priority 2006, dated 2014).
Entries after “also recorded” stand apart in the source; their conditions may differ.

Columns and labels:
active caspase 3 = test: Western blot of active caspase 3 in T47D cells; format: cell-based, human
Procedure: T47D cells were treated with 0, 200 nM, 500 nM and 1 μM PQ1 for 24 hours. Treatment with succinic acid was used as control. Western blot analysis was performed. Nitrocellulose membrane was blotted with the active form of caspase 3 antibodies (16 kDa). Actin acts as loading control. Graphical presentation of three experiments are presented with statistical significance, p<0.05.
Western Blot analysis: Cells were grown in RPMI media until they were 90% confluent in 75 cm2 flasks. Cells were dosed with 200, 500 nM of PQ1 for 24 hours. Cells were harvested with lysis buffer and centrifugated. Cell lysate was run on a 12% SDSpolyacrylamide gel electrophoresis (PAGE) and transferred to nitrocellulose membrane. Membrane was incubated with Caspase Antibody. Western blots were detected by enhanced chemiluminescence detection reagents.
The effect of PQ1 on apoptosis was further examined by detecting the active form of caspase 3. T47D cells were treated with […] PQ1 for 24 hours. Western blot analysis was performed using active form of caspase 3 antibodies. A 200 nM PQ1 causes 1.5-fold increase of active caspase 3 compared to control (FIG. 18). However, a decrease of caspase is observed in higher concentrations, a common effect in apoptotic protein expression. This is due to the cytotoxicity response of the cells.
Western Blot Analysis. Cells were grown in serum supplemented RPMI media until they were 90% confluent in 75 cm^2 flasks. Cells were kept in starving media containing phenol red-free DMEM with 5% charcoal dextran stripped serum, overnight. Cells were dosed with 0, 10, 100, 200 and 500 nM of PQ1 for 24 hours. Cells were washed three times with cold PBS and then were harvested using lysis buffer (20 mM Tris pH 7.5, 0.5 mM EDTA, 0.5 mM EGTA, 0.5% Triton X-100) with 1:1000 dilution of protease inhibitors (Sigma-Aldrich, Saint Louis, Mo.). Cell lysate was sonicated and centrifuged at 13,000 rpm for 30 minutes at 4° C. […] Western blots were detected by enhanced chemiluminescence detection reagents (Pierce, Rockford, Ill., USA).

HIF1α = test: CoCl2 chemical hypoxia in R28 cells, HIF1α stabilization in nuclear extracts; format: cell-based, rat; details: PQ1 alone, up to 24 h
Procedure: (A) About 70% confluent retinal R28 cells were treated with 100, 200 and 500 μM CoCl2 for 24 h with or without the pre-treatment of PQ1 (10 μM, 40 min) in a cell culture chamber (5% CO2, room air, 37° C.). Caspase-3 activation was determined by Western blotting in whole cell homogenates (WCH). (B) HIF1α stabilization was measured in the nuclear extracts (NE) after treatment with 500 μM CoCl2 at different time intervals with or without the pretreatment of PQ1. […] Levels of Cx43 and phosphoCx43-Ser368 are measured in WCH. β-Actin is used as a loading control.
Approximately 70% confluent retinal R28 cells were pre-incubated with PQ1 (10 μM, 40 min), followed by CoCl2 treatments at 100, 200 and 500 μM for different time periods in a cell culture chamber (5% CO2, room air, 37° C.). Hypoxia induction was confirmed by testing the hypoxia-inducible factor 1-α (HIF1α) protein expression levels in nuclear extracts by Western blotting.
Nuclear extracts. […] The eluted nuclear proteins in the supernatant were collected and HIF1a protein levels were measured by Western blotting. […]

PKCγ = test: Expression of PKCγ; format: cell-based; details: 100, 200, 300 and 500 nM, 24 hours
Procedure: However, PQ3 has an opposite effect on mammary cancer cell lines. […] A summary of PQ-mediated GJIC activity and colony growth in breast and colon cancer cells is presented in Tables 1, 2, and 3, as well as FIGS. 10-13. In FIG. 10, SW620 cells were dosed for 24 hours with PQ1 at 100, 200, 300, and 500 nM. The gap junction activity was measured as a percent of control, as previously described. It was seen that all concentrations on PQ1 increased the gap junction activity in SW620 colon cancer cells as compared to the control. In FIG. 11, the effect of PQ1 on the expression of PKCγ was studied at concentrations of 100, 200, 300 and 500 nM PQ1 for 24 hours. It is seen in FIG. 11 that PQ1 has no effect on the expression of PKCγ at the levels tested. In FIGS. 12 and 13, the effect of PQ1 on the colony growth of SW620 colon cancer cells was measured with 1-100 nM PQ1 (FIG. 12) and 10 uM PQ1 (FIG. 13).

COc1cc(NCCCN)c2nccc(C)c2c1Oc1cccc(C(F)(F)F)c1.O=C(O)CCC(=O)O [PQ1, 6-Methoxy-8-[(3-aminopropyl)amino]-4-methyl-5-(3-trifluoromethylphenyloxy) quinoline succinic acid]
increase of active caspase 3 (active caspase 3; 200 nM, 24 hours, compared to control): 1.5 fold | increase in the expression of active caspase 3 (active caspase 3; 200 and 500 nM): 50% | active caspase 3 (active caspase 3; higher concentrations, 24 hours): decrease | HIF1α stabilization (HIF1α): did not cause activation or stabilization; also recorded: did not have any effect | expression of PKCγ (PKCγ): no effect
